Data as given in US20130230459A1, “RADIOLABELLED mGluR2 PET LIGANDS” (Janssen Pharmaceuticals, Inc., priority 2010, published 2013).

Columns and labels:
human mGluR2 receptor = target: T1, human mGluR2 receptor (Homo sapiens, UniProt Q14416); test: [35S]GTPγS binding assay, mGluR2 positive allosteric modulation (PAM); type: biochemical; settings: in presence of ~EC20 glutamate, membranes of CHO cells with human mGluR2; for EC50: read-out: GTPγS-hmGluR2 PAM pEC50 (converted)
T1 construct: expressed in transfected cells; host or cells: CHO cells (membranes)
T1 sequence (Q14416 19-872): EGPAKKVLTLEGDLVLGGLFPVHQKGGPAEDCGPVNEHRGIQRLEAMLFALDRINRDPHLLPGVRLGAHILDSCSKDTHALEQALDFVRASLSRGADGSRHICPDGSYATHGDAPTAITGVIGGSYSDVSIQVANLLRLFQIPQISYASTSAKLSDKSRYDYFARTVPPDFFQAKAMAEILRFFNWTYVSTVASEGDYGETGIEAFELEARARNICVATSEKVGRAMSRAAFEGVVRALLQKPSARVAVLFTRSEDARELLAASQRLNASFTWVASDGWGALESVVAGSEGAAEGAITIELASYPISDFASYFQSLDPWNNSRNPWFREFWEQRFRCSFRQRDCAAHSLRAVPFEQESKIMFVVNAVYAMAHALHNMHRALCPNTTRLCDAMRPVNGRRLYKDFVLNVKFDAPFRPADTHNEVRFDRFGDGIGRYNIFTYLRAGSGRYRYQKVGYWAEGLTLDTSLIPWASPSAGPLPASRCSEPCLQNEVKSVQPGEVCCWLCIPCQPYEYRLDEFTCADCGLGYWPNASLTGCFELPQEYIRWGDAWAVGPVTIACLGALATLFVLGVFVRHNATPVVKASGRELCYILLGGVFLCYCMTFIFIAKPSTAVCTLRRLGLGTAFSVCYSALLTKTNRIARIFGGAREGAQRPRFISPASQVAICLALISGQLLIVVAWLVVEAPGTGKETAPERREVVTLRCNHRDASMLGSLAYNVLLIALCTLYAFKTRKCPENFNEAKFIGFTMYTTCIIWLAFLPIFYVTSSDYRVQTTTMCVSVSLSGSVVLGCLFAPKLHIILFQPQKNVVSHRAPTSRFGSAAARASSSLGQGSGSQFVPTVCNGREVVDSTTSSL
Procedure: The [^35S]GTPγS binding assay is a functional membrane-based assay used to study G-protein coupled receptor (GPCR) function whereby incorporation of a non-hydrolysable form of GTP, [^35S]GTPγS (guanosine 5′-triphosphate, labelled with […] ^35S), is measured.
CHO-cells were cultured to pre-confluence and stimulated with 5 mM butyrate for 24 h. Cells were then collected by scraping in PBS and cell suspension was centrifuged (10 min at 4000 RPM in benchtop centrifuge). Supernatant was discarded and pellet gently resuspended in 50 mM Tris-HCl, pH 7.4 by mixing with a vortex and pipetting up and down. The suspension was centrifuged at 16,000 RPM (Sorvall RC-5C plus rotor SS-34) for 10 minutes and the supernatant discarded. The pellet was homogenized in 5 mM Tris-HCl, pH 7.4 using an ultra-turrax homogenizer and centrifuged again (18,000 RPM, 20 min, 4° C.). The final pellet was resuspended in 50 mM Tris-HCl, pH 7.4 and stored at −80° C. in appropriate aliquots before use. Protein concentration was determined by the Bradford method (Bio-Rad, USA) with bovine serum albumin as standard.
Measurement of mGluR2 positive allosteric modulatory activity of test compounds was performed as follows. Test compounds and glutamate were diluted in assay buffer containing 10 mM HEPES acid, 10 mM HEPES salt, pH 7.4, 100 mM NaCl, 3 mM MgCl2 and 10 μM GDP. Human mGlu2 receptor-containing membranes were thawed on ice and diluted in assay buffer supplemented with 14 μg/ml saponin. Membranes were pre-incubated with compound alone or together with a predefined (˜EC20) concentration of glutamate (PAM assay) for 30 min at 30° C. After addition of [^35S]GTPγS (f.c. 0.1 nM), assay mixtures were shaken briefly and further incubated to allow [^35S]GTPγS incorporation on activation (30 minutes, 30° C.). Final assay mixtures contained 7 μg of membrane protein in 10 mM HEPES acid, 10 mM HEPES salt, pH 7.4, 100 mM NaCl, 3 mM MgCl2,10 μM GDP and 10 μg/ml saponin. Total reaction volume was 200 μl. Reactions were terminated by rapid filtration through Unifilter-96 GF/B plates (Perkin Elmer, Mass., USA) using a 96-well filtermate universal harvester. Filters were washed 6 times with ice-cold 10 mM NaH2PO4/10 mM Na2HPO4, pH 7.4. Filters were then air-dried, and 40 μl of liquid scintillation cocktail (Microscint-O) was added to each well. Membrane-bound radioactivity was counted in a Microplate Scintillation and Luminescence Counter from Perkin Elmer.
The concentration-response curves of representative compounds of the present invention—obtained in the presence of EC20 of mGluR2 agonist glutamate to determine positive allosteric modulation (PAM)—were generated using the Lexis software interface (developed at J&J). Data were calculated as % of the control glutamate response, defined as the maximal response that is generated upon addition of glutamate alone. Sigmoid concentration-response curves plotting these percentages versus the log concentration of the test compound were analyzed using non-linear regression analysis. The concentration producing half-maximal effect is then calculated as EC50.
The pEC50 values below were calculated as the −log EC50, when the EC50 is expressed in M.

[1] = test system: hmGluR1, hmGluR3, hmGluR4, hmGluR5, rmGluR6, hmGluR7 and hmGluR8; test: Selectivity for hmGluR2 in functional receptor assays (Ca2+ mobilization or [35S]GTPγS); type: cell-based, human; rat (mGluR6); settings: hmGluR2 versus other mGluRs
Procedure: (§1) Selectivity of the compounds for hmGluR2 versus hmGluR1, hmGluR3, hmGluR4, hmGluR5, rmGluR6, hmGluR7 and hmGluR8 was determined using functional receptor assays (either measuring changes in intracellular Ca2+ mobilization or G protein activation via [^35S]GTPγS) with cells overexpressing the receptor of interest.

hmGluR3 = target: T2, hmGluR3 (Homo sapiens, UniProt Q14832); test: Selectivity functional receptor assay, mGluR3; type: cell-based; settings: hmGluR2 versus mGluR3
T2 construct: expressed in transfected cells
T2 sequence (Q14832 23-879): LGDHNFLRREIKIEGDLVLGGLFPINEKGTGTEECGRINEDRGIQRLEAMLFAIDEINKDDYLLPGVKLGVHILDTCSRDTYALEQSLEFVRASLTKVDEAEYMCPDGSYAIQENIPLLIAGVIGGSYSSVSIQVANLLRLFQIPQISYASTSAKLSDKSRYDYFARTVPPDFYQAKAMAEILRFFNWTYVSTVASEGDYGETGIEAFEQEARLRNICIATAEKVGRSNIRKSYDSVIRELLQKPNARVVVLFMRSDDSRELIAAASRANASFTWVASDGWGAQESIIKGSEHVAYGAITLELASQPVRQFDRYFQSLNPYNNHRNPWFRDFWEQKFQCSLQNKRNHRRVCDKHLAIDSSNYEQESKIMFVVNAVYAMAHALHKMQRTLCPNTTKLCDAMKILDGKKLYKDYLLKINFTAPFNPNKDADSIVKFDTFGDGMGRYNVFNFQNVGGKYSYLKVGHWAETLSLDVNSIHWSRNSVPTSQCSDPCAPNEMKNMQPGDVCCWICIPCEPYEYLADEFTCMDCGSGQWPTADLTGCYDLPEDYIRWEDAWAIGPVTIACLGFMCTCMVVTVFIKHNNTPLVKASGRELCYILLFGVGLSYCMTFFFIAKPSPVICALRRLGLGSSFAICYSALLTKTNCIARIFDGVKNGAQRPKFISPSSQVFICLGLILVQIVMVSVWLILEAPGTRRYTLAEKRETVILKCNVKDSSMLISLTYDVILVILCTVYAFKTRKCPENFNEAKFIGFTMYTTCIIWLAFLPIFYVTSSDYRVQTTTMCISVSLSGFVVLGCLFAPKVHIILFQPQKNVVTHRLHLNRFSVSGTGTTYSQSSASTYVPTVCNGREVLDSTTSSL
Procedure: as §1

hmGluR8 = target: T3, hmGluR8 (Homo sapiens, UniProt O00222); test: Selectivity functional receptor assay, mGluR8; type: cell-based; settings: hmGluR2 versus mGluR8
T3 construct: expressed in transfected cells
T3 sequence (O00222 34-908): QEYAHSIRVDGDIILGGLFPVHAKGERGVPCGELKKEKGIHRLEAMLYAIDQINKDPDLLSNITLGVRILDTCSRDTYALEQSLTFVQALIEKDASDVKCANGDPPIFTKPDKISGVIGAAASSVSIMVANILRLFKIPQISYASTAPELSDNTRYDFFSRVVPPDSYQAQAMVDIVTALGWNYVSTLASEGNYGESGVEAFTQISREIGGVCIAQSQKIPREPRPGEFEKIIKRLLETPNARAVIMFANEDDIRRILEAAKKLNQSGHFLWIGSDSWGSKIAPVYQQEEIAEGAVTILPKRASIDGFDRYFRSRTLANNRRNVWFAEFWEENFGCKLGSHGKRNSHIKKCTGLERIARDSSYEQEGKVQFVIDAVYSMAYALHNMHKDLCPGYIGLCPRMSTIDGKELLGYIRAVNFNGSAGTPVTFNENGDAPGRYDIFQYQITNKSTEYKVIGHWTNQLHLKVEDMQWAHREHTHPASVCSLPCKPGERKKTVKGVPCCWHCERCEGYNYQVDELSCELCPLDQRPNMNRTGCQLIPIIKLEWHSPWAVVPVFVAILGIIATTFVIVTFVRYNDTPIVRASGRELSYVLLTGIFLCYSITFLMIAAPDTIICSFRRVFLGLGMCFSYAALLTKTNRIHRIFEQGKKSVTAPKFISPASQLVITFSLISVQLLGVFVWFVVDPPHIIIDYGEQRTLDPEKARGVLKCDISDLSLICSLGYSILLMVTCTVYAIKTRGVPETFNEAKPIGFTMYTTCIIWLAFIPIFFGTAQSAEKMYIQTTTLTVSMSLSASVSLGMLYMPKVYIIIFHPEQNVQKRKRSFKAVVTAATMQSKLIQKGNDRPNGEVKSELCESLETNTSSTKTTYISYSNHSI
Procedure: as §1

hmGluR7 = target: T4, hmGluR7 (Homo sapiens, UniProt Q14831); test: Selectivity functional receptor assay, mGluR7; type: cell-based; settings: hmGluR2 versus mGluR7
T4 construct: expressed in transfected cells
T4 sequence (Q14831 35-915): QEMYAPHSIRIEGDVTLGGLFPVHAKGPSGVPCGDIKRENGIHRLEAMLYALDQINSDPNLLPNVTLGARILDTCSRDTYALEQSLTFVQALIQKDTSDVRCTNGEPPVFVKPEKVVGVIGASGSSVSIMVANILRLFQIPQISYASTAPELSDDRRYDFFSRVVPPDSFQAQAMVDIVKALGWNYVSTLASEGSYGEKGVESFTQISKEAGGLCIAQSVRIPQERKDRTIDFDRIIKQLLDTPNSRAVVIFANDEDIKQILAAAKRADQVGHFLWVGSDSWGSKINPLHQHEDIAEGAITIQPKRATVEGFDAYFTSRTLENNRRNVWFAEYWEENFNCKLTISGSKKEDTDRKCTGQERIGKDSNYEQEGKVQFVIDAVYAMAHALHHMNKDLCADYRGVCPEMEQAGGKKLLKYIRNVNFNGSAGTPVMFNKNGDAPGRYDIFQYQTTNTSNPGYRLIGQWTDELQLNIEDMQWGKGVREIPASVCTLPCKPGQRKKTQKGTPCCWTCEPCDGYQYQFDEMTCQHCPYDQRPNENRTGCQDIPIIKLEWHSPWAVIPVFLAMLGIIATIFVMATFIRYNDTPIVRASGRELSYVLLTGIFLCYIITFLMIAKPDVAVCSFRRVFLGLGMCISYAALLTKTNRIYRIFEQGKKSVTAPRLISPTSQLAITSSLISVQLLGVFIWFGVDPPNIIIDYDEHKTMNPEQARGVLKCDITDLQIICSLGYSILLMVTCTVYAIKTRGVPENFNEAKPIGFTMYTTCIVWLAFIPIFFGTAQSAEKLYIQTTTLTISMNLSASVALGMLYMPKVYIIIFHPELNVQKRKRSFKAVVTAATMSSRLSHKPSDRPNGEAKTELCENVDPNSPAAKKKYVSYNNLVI
Procedure: as §1

| Structure (SMILES) | GTPγS-hmGluR2 PAM pEC50 (human mGluR2 receptor) | Selectivity over mGluR1, mGluR3-mGluR8 [1] | Selectivity over mGluR3 (hmGluR3) | Selectivity over mGluR8 (hmGluR8) | melting point [°C] | EC50 (human mGluR2 receptor) [nM] | Selectivity over mGluR7 (hmGluR7) |
| --- | --- | --- | --- | --- | --- | --- | --- |
| COc1ccc(F)c(F)c1C1CCN(c2ccn3c(CC4CC4)nnc3c2Cl)CC1 [compound 10] | 8.03 | >1,000 fold, except for mGluR3 and mGluR8 for | which selectivity ≧500 fold | which selectivity ≧500 fold | 208.5 |  |  |
| COc1c(F)cccc1C1CCN(c2ccn3c(CC4CC4)nnc3c2C(F)(F)F)CC1 [compound 12] |  | ≥ 1,000 fold | ≥ 200 fold |  | 195.7 | 11.2 |  |
| COc1ccc(F)cc1C1CCN(c2ccn3c(CC4CC4)nnc3c2Cl)CC1 [compound 4] |  | > 500 fold | ≥ 40 fold |  | > 300 | 9.33 |  |
| COc1c(C2CCN(c3ccn4c(CC5CC5)nnc4c3Cl)CC2)ccc(F)c1F [compound 8] |  | > 1,000 fold | ≥ 400 fold |  | 173.5 | 26.3 |  |
| COc1c(F)cccc1C1CCN(c2ccn3c(CC4CC4)nnc3c2Cl)CC1 [compound 9] | 7.43 | >500 fold |  |  | 168.3 |  |  |
| COc1c(F)ccc(F)c1C1CCN(c2ccn3c(CC4CC4)nnc3c2C(F)(F)F)CC1 [compound 3] | 8.39 | >1,000 fold |  |  | 180.7 |  |  |
| COc1cccc(F)c1C1CCN(c2ccn3c(CC(F)(F)F)nnc3c2Cl)CC1 [compound 5] |  | ≧1,000 fold |  |  |  | 3.89 |  |
| COc1ccccc1C1CCN(c2ccn3c(CC4CC4)nnc3c2Cl)CC1 [compound 11] | 7.7 | >100, except for mGluR3 for which selectivity fold | ~20 fold |  |  |  |  |
| COc1cccc(F)c1C1CCN(c2ccn3c(CC4CC4)nnc3c2Cl)CC1 [compound 6] | 8.22 | > 1,000 fold | > 300 fold | mGluR7 and mGluR8 for which selectivity >500 fold |  |  | mGluR7 and mGluR8 for which selectivity >500 fold |
| COc1ccc(F)cc1C1CCN(c2ccn3c(CC(F)(F)F)nnc3c2Cl)CC1 [compound 1] | 7.98 | >1,000 fold |  |  | 259 |  |  |
| COc1cc(F)cc(F)c1C1CCN(c2ccn3c(CC4CC4)nnc3c2Cl)CC1 [compound 7] | 8.16 | >1,000 fold, except for mGluR3 and mGluR8 | ≧500 fold | ≧500 fold | 162.2 |  |  |
| COc1c(F)ccc(F)c1C1CCN(c2ccn3c(CC4CC4)nnc3c2Cl)CC1 [compound 2] |  | >1,000 fold |  |  | 163.2 | 7.41 |  |
